Assay results taken from patent publication US12209079B2 (GENERAL INCORPORATED ASSOCIATION PHARMA VALLEY PROJECT …, priority 2017, dated 2025).
Counter-ions that a name gives are not always drawn.

Legend:
[1] = target: rhTDO (recombinant human TDO) (Homo sapiens, UniProt P48775); experiment: Enzyme assay using rhTDO (rate of kynurenine production); format: biochemical; conditions: 2 h; final concentration of the compound 10 μM; rate relative to reaction without compound; read-out: rhTDO-mediated kynurenine production
Protocol: 4 μL of a compound solution was added to 176 μL of a rhTDO reaction solution (0.5 M potassium phosphate buffer (20 μL), 0.2 M ascorbic acid (20 μL), 0.5 mM methylene blue (4 μL), 10 mg/mL catalase (2 μL), H2O (128 μL), and rhTDO (2 μL)). The mixture was pipetted and preincubated at 37° C. for 10 minutes. Then, the whole amount was brought to 200 μL by the addition of 20 μL of a 20 mM aqueous tryptophan solution, and the mixture was pipetted again and reacted at 37° C. for 120 minutes. After the reaction, the enzymatic reaction was terminated by the addition of 40 μL of a 30% [v/v] aqueous trichloroacetic acid solution to the reaction solution. The mixture was well stirred by pipetting and heated at 50° C. for 15 minutes so that N-formylkynurenine was converted to kynurenine. The reaction solution thus heated was centrifuged (15,000 rpm, 5 min, 24° C.), and 150 μL of the supernatant was transferred to a transparent 96-well flat-bottomed plate, followed by the measurement of absorbance at 490 nm using SpectraMax M5 SK (background measurement). After the measurement, a solution of 2% [w/v] p-dimethylbenzaldehyde in acetic acid was added at 150 μL/well and reacted for 5 minutes, followed by the measurement of absorbance at 490 nm again. The rate of kynurenine production was calculated according to the following expression. Rate of kynurenine production (%) for each compound in the case of using rhTDO={(Absorbance at 490 nm in the tryptophan-containing aqueous solution comprising rhTDO and the compound of the present invention−Absorbance of the background)/(Absorbance at 490 nm in the tryptophan-containing aqueous solution without the addition of the compound solution−Absorbance of the background)}×100 IDO Cell-Based Assay Protocol

TDO in A172 cells = target: T1, TDO in A172 cells (Homo sapiens, UniProt P48775); experiment: TDO cell-based assay, kynurenine production in A172 cells; conditions: A 172; final concentration of the compound 10 μM; rate relative to culture without compound
T1 construct: endogenous in cells; host or cells: A172 cells
Protocol: A172 cells (3.0×10^5 cells/mL) suspended in a culture medium for assay (PRMI-1640; Wako 186-02155, 5% FBS, 50 units/mL penicillin, and 50 μg/mL streptomycin) were inoculated at 100 μL/well to a transparent 96-well flat-bottomed plate and cultured at 37° C. for 24 hours in 5% CO2. The culture medium was removed from the cells thus cultured. A culture medium for assay was added at 80 μL/well, and further, a compound solution was added at 10 μL/well. The cells were preincubated for 1 hour. Then, the whole amount was brought to 100 μL/well by the addition of 10 μL/well of a 5 mM aqueous tryptophan solution (final concentration of L-tryptophan: 524 μM), and the cells were cultured for 24 hours. After the culture, absorbance was measured at 460 nm using SpectraMax MSSK (Molecular Devices, LLC) (background measurement). After the measurement, a kynurenine quantification reagent (prepared with 7% [v/v] aqueous trichloroacetic acid solution and a solution of 2% [w/v] p-dimethylbenzaldehyde in acetic acid at 2:5 [v/v]) was added at 200 μL/well and reacted for 5 minutes, followed by the measurement of absorbance at 460 nm again. The rate of kynurenine production was calculated according to the following expression. Rate of kynurenine production (%) for each compound in the case of using A172 cells={(Absorbance at 460 nm in the tryptophan-containing culture medium comprising the A172 cells and the solution of the compound of the present invention−Absorbance of the background)/(Absorbance at 460 nm in the tryptophan-containing culture medium without the addition of the compound solution−Absorbance of the background)}×100

[2] = target: rhIDO (recombinant human IDO) (Homo sapiens, UniProt P14902); experiment: Enzyme assay using rhIDO (rate of kynurenine production); format: biochemical; conditions: 2 h; final concentration of the compound 10 μM; rate relative to reaction without compound; read-out: rhIDO-mediated kynurenine production
Protocol: Enzyme Assay Protocol Using rhIDO (Recombinant Human IDO)
4 μL of a compound solution was added to 176 μL of a rhIDO reaction solution (0.5 M potassium phosphate buffer (20 μL), 0.2 M ascorbic acid (20 μL), 0.5 mM methylene blue (4 μL), 10 mg/mL catalase (2 μL), H2O (128 μL), and rhIDO (2 μL)). The mixture was pipetted and preincubated at 37° C. for 10 minutes. Then, the whole amount was brought to 200 μL by the addition of 20 μL of a 2 mM aqueous tryptophan solution, and the mixture was pipetted again and reacted at 37° C. for 120 minutes. After the reaction, the enzymatic reaction was terminated by the addition of 40 μL of a 30% [v/v] aqueous trichloroacetic acid solution to the reaction solution. The mixture was well stirred by pipetting and heated at 50° C. for 15 minutes so that N-formylkynurenine was converted to kynurenine. The reaction solution thus heated was centrifuged (15,000 rpm, 5 min, 24° C.), and 150 μL of the supernatant was transferred to a transparent 96-well flat-bottomed plate, followed by the measurement of absorbance at 490 nm using SpectraMax MSSK (background measurement). After the measurement, a solution of 2% [w/v] p-dimethylbenzaldehyde in acetic acid was added at 150 μL/well and reacted for 5 minutes, followed by the measurement of absorbance at 490 nm again. The rate of kynurenine production was calculated according to the following expression. Rate of kynurenine production (%) for each compound in the case of using rhIDO={(Absorbance at 490 nm in the tryptophan-containing aqueous solution comprising rhIDO and the compound of the present invention−Absorbance of the background)/(Absorbance at 490 nm in the tryptophan-containing aqueous solution without the addition of the compound solution−Absorbance of the background)}×100 Enzyme Assay Protocol Using rhTDO (Recombinant Human TDO)

IDO in A431 cells = target: T2, IDO in A431 cells (Homo sapiens, UniProt P14902); experiment: IDO cell-based assay, kynurenine production in IFN-γ stimulated A431 cells; conditions: A-431, 24 h; final concentration of the compound 10 μM; rate relative to culture without compound
T2 construct: endogenous in cells; host or cells: A431 cells, IFN-γ stimulated
Protocol: A431 cells (3.0×10^5 cells/mL) suspended in a culture medium for assay (D-MEM; Wako 040-30095, 5% FBS, 50 units/mL penicillin, 50 μg/mL streptomycin, and 2 mM L-glutamine) were inoculated at 100 μL/well to a transparent 96-well flat-bottomed plate and cultured at 37° C. for 24 hours in 5% CO2. The culture medium was removed from the cells thus cultured. A tryptophan-containing culture medium (culture medium for assay supplemented with 178 μM L-tryptophan) was added at 80 μL/well, and further, a compound solution was added at 10 μL/well. The cells were preincubated for 1 hour. Then, the whole amount was brought to 100 μL/well by the addition of 10 μL/well of IFN-γ diluted into 100 ng/mL with a tryptophan-containing culture medium, and the cells were cultured for 24 hours. After the culture, absorbance was measured at 460 nm using SpectraMax MSSK (Molecular Devices, LLC) (background measurement). After the measurement, a kynurenine quantification reagent (prepared with 7% [v/v] aqueous trichloroacetic acid solution and a solution of 2% [w/v] p-dimethylbenzaldehyde in acetic acid at 2:5 [v/v]) was added at 200 μL/well and reacted for 5 minutes, followed by the measurement of absorbance at 460 nm again. The rate of kynurenine production was calculated according to the following expression. Rate of kynurenine production (%) for each compound in the case of using A431 cells={(Absorbance at 460 nm in the tryptophan-containing culture medium comprising the A431 cells and the solution of the compound of the present invention−Absorbance of the background)/(Absorbance at 460 nm in the tryptophan-containing culture medium without the addition of the compound solution−Absorbance of the background)}×100 TDO Cell-Based Assay Protocol

T2 sequence (P14902 whole entry): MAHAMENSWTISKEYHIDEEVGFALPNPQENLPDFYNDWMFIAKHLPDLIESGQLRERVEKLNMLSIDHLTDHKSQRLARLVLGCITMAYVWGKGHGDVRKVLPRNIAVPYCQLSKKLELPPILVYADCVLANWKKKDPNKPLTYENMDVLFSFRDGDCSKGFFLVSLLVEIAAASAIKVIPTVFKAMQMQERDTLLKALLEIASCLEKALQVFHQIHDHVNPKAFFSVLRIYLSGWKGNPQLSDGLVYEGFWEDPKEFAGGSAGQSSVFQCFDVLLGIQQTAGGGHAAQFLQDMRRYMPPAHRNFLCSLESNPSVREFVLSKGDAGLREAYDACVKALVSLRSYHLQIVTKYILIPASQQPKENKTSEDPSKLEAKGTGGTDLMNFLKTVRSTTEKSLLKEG
Sequence of rhIDO (recombinant human IDO) (P14902 whole entry): as above
Sequence of rhTDO (recombinant human TDO) (P48775 whole entry): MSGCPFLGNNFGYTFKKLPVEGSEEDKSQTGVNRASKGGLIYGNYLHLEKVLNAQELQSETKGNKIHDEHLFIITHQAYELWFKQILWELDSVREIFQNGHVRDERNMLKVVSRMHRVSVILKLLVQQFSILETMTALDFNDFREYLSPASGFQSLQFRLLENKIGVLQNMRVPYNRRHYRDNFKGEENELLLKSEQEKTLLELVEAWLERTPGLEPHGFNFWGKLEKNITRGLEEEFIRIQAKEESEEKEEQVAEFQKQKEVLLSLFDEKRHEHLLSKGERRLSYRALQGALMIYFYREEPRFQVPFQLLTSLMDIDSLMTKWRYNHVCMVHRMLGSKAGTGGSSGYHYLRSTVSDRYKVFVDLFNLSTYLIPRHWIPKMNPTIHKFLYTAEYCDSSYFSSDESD
T1 sequence (P48775 whole entry): as above

remaining activity at 10 µM [1] [%] | remaining activity at 10 µM (TDO in A172 cells) [%] | remaining activity at 10 µM [2] [%] | remaining activity at 10 µM (IDO in A431 cells) [%] | Compound
44 | -5 | 36 | 5 | COc1ccc(CN2CN=C(SCc3ccccc3CSC3=NCN(Cc4ccc(OC)cc4)CN3)NC2)cc1 [Compound 26, 1,2-bis(((5-(4-methoxybenzyl)-1,4,5,6-tetrahydro-1,3,5-triazin-2-yl)thio)methyl)benzene]
30 | 78 | 6 | 7 | N=C(N)SCc1ccc2ccccc2c1CSC(=N)N [Compound 3, naphthalene-1,2-diylbis(methylene) dicarbamimidothioate dihydrobromide]
56 | 102 | 64 | 68 | CC(C)(C)c1ccc(CSC(=N)N)c(CSC(=N)N)c1 [Compound 4, (4-(tert-butyl)-1,2-phenylene)bis(methylene) dicarbamimidothioate dihydrobromide]
65 | 18 | 84 | 56 | N/C(=N\c1ccc(Br)cc1)SCc1cc(Br)ccc1C(=O)NCc1ccc(Cl)cc1 [Compound 84, 5-Bromo-2-((4-chlorobenzyl)carbamoyl)benzyl (E)-N′-(4-bromophenyl)carbamimidothioate hydrobromide]
26 | 17 | 54 | 16 | Fc1ccc(CSC2=NCN(Cc3ccc(F)c(Cl)c3)CN2)c(CSC2=NCN(Cc3ccc(F)c(Cl)c3)CN2)c1 [Compound 146, 6,6′-(((4-Fluoro-1,2-phenylene)bis(methylene))bis(sulfanediyl))bis(3-(3-chloro-4-fluorobenzyl)-1,2,3,4-tetrahydro-1,3,5-triazine)]
8 | 7 | 41 | 14 | Fc1ccc(CSC2=NCN(CC3CC3)CN2)c(CSC2=NCN(CC3CC3)CN2)c1 [Compound 120, 6,6′-(((4-Fluoro-1,2-phenylene)bis(methylene))bis(sulfanediyl))bis(3-(cyclopropylmethyl)-1,2,3,4-tetrahydro-1,3,5-triazine)]

More lines, now with the values behind:

Compound | remaining activity at 10 µM [1] [%] | remaining activity at 10 µM (TDO in A172 cells) [%] | remaining activity at 10 µM [2] [%] | remaining activity at 10 µM (IDO in A431 cells) [%]
Cc1ccc(CSC(=N)N)c(CSC(=N)N)c1 [Compound 12, (4-methyl-1,2-phenylene)bis(methylene) dicarbamimidothioate dihydrobromide] | 10 | 0 | 20 | 13
FC(F)(F)c1ccc(CSC2=NCN(CCc3ccccc3Cl)CN2)c(CSC2=NCN(CCc3ccccc3Cl)CN2)c1 [Compound 48, 6,6′-(((4-(Trifluoromethyl)-1,2-phenylene)bis(methylene))bis(sulfanediyl))bis(3-(2-chlorophenethyl)-1,2,3,4-tetrahydro-1,3,5-triazine)] | 73 | 71 | 80 | 63
Fc1ccc(CSC2=NCN(CCc3ccc(Cl)c(Cl)c3)CN2)c(CSC2=NCN(CCc3ccc(Cl)c(Cl)c3)CN2)c1 [Compound 133, 6,6′-(((4-Fluoro-1,2-phenylene)bis(methylene))bis(sulfanediyl))bis(3-(3,4-dichlorophenethyl)-1,2,3,4-tetrahydro-1,3,5-triazine)] | 10 | 6 | 1 | 13
N=C(N)SCc1cc(F)c(F)cc1CSC(=N)N [Compound 131, (4,5-Difluoro-1,2-phenylene)bis(methylene) dicarbamimidothioate dihydrobromide] | 3 | 6 | 7 | 5
N=C(N)SCc1sc2ccccc2c1CSC(=N)N [Compound 151, Benzo[b]thiophene-2,3-diylbis(methylene) dicarbamimidothioate dihydrobromide] | 11 | 76 | 13 | 33
COc1ccc(CSC(=N)N)c(CSC(=N)N)c1 [Compound 35, (4-Methoxy-1,2-phenylene)bis(methylene) dicarbamimidothioate dihydrobromide] | 7 | 0 | 24 | 4
N=C(N)SCc1cc(Br)ccc1C(=O)NCc1ccc(Cl)c(Cl)c1 [Compound 94, 5-Bromo-2-((3,4-dichlorobenzyl)carbamoyl)benzyl carbamimidothioate hydrobromide] | 15 | 59 | 80 | 158
